According to PubChem BioAssay (NCI):
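Briefly, cells in 96-well plates were exposed to five compound concentrations for 48 h, and endpoints were estimated by linear interpolation. GI50 marks 50% less growth. TGI: total growth inhibition.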

Legend:
Experiment in all cases: growth of human tumour cells (NCI), 48 h
[1] = test system: UACC-62 melanoma
[2] = test system: HL-60(TB) leukemia
[3] = test system: SK-MEL-5 melanoma
[4] = test system: U251 CNS
[5] = test system: OVCAR-4 ovarian
[6] = test system: K-562 leukemia
[7] = test system: KM12 colon
[8] = test system: CCRF-CEM leukemia
[9] = test system: A498 renal
[10] = test system: TK-10 renal
[11] = test system: SF-295 CNS
[12] = test system: SNB-75 CNS
[13] = test system: OVCAR-3 ovarian
[14] = test system: MDA-MB-231 breast
[15] = test system: DU-145 prostate
[16] = test system: HCT-15 colon
[17] = test system: NCI/ADR-RES ovarian
[18] = test system: MCF7 breast
[19] = test system: IGROV1 ovarian
[20] = test system: PC-3 prostate
[21] = test system: HCC-2998 colon
[22] = test system: HS 578T breast
[23] = test system: SNB-19 CNS
[24] = test system: OVCAR-8 ovarian
[25] = test system: OVCAR-5 ovarian
[26] = test system: EKVX NSCLC
[27] = test system: MDA-MB-468 breast
[28] = test system: MALME-3M melanoma
[29] = test system: SN12C renal
[30] = test system: ACHN renal
[31] = test system: RXF 393 renal
[32] = test system: SK-MEL-28 melanoma
[33] = test system: UO-31 renal
[34] = test system: SF-539 CNS
[35] = test system: LOX IMVI melanoma
[36] = test system: RPMI-8226 leukemia
[37] = test system: MDA-MB-435
[38] = test system: NCI-H23 lung

## Brc1ccc(-c2n(Cc3ccc4ccccc4c3)c(-c3ccccc3)c(-c3ccccc3)[n+]2Cc2ccc3ccccc3c2)cc1
[1]
  GI50: 285 nM
  TGI: 1200 nM
[2]
  GI50: 154 nM
  TGI: 533 nM
[3]
  GI50: 169 nM
  TGI: 316 nM
[4]
  GI50: 248 nM
  TGI: 2600 nM
[5]
  GI50: 300 nM
  TGI: 1400 nM
[6]
  GI50: 152 nM
  TGI: 1460 nM
[7]
  GI50: 276 nM
  TGI: 1130 nM
[8]
  GI50: 342 nM
  TGI: 2010 nM
[9]
  GI50: 338 nM
  TGI: 1310 nM
[10]
  GI50: 296 nM
  TGI: 1190 nM
[11]
  GI50: 220 nM
  TGI: 682 nM
[12]
  GI50: 189 nM
  TGI: 1020 nM
[13]
  GI50: 253 nM
  TGI: 2790 nM
[14]
  GI50: 239 nM
  TGI: 707 nM
[15]
  GI50: 381 nM
  TGI: 1480 nM
[16]
  GI50: 695 nM
  TGI: 2020 nM
[17]
  GI50: 1440 nM
  TGI: 2970 nM
[18]
  GI50: 221 nM
  TGI: 816 nM
[19]
  GI50: 301 nM
  TGI: 1490 nM
[20]
  GI50: 332 nM
  TGI: 1500 nM
[21]
  GI50: 344 nM
  TGI: 1370 nM
[22]
  GI50: 439 nM
  TGI: 2180 nM
[23]
  GI50: 314 nM
  TGI: 1250 nM
[24]
  GI50: 302 nM
  TGI: 1800 nM
[25]
  GI50: 305 nM
  TGI: 1240 nM
[26]
  GI50: 197 nM
  TGI: 1030 nM
[27]
  GI50: 68.7 nM
  TGI: 494 nM
[28]
  GI50: 214 nM
  TGI: 635 nM
[29]
  GI50: 256 nM
  TGI: 1010 nM
[30]
  GI50: 363 nM
  TGI: 1240 nM
[31]
  GI50: 212 nM
  TGI: 798 nM
[32]
  GI50: 428 nM
  TGI: 1580 nM
[33]
  GI50: 1130 nM
  TGI: 2550 nM
[34]
  GI50: 338 nM
  TGI: 1250 nM
[35]
  GI50: 272 nM
  TGI: 857 nM
[36]
  GI50: 124 nM
  TGI: 744 nM
[37]
  GI50: 295 nM
  TGI: 1070 nM
[38]
  GI50: 244 nM
  TGI: 817 nM

## CC(C)(C[C@H]1CN(S(=O)(=O)c2cccc(C(F)(F)F)c2)c2cc(-c3cc(F)cc(OC(F)F)c3)ccc2O1)C(=O)O
[27]
  GI50: 3410 nM
  TGI: 25100 nM

## CCn1c(SCc2ccc(C)cc2)nnc1-c1nn(-c2ccc(Cl)cc2Cl)c(-c2ccc(Cl)cc2)c1C
[27]
  GI50: 623 nM
  TGI: 10600 nM

## CN(C)C(=O)[C@H](O)[C@H](Cc1ccccc1)NC(=O)c1cc2cc(Cl)ccc2[nH]1
[27]
  GI50: 20100 nM
  TGI: 77600 nM

## COc1cc(/C=C/c2cc(/C=C/c3ccc(O)c(OC)c3)n(C(=O)Nc3ccc(C)cc3C)n2)ccc1O
[27]
  GI50: 242 nM
  TGI: 750 nM

## O=S(=O)(Nc1cc(Sc2cccc3cccnc23)c(O)c2ccccc12)c1ccccc1
[27]
  GI50: 1290 nM
  TGI: 3200 nM

## COc1ccc(-c2nn(-c3ccc(NC(=O)Nc4cc(C(F)(F)F)cc(C(F)(F)F)c4)cc3)cc2-c2ccncc2)cc1Cl
[27]
  GI50: 1800 nM
  TGI: 6000 nM

## O=C(/C=C\c1ccc(NCc2ccc(C(=O)O)cc2)cc1)CCl
[27]
  GI50: 7360 nM
  TGI: 23800 nM

## COc1cc2[nH]c(C(=O)c3cc(OC)c(OC)c(OC)c3)c(N)c2cc1C#CC1CC1
[27]
  GI50: 2080 nM
  TGI: 8280 nM

## COc1cccc2c(=O)c3c(sc12)c(N1CCNCC1)nc1ccccc13
[27]
  GI50: 1660 nM
  TGI: 3300 nM

## Nc1nc(F)nc2c1ncn2C1OC(CO)C(O)C1O (stereo unspecified)
[27]
  GI50: > 85600 nM
  TGI: > 100000 nM

## CN(C)CCN1C(=O)c2ccc3c4c(ccc(c24)C1=O)C(=O)N(CCN=C=S)C3=O
[27]
  GI50: 26.3 nM
  TGI: 101 nM

## Cc1[nH]c2ccccc2c(=O)c1CC=C(Cl)Cl
[27]
  GI50: 18800 nM
  TGI: > 100000 nM

## CC/C=C\C[C@H]1C/C=C2/C(=O)C=C[C@@H]2C/C=C\CCCC(=O)O1
[27]
  GI50: 854 nM
  TGI: 2730 nM

## O=C1Nc2ccc(F)cc2/C1=C/c1ccc[nH]1
[27]
  GI50: 203 nM
  TGI: 1500 nM

## COc1ccc(CCN2COc3c([C@@H](C)CCC=C(C)C)ccc(C)c3C2)cc1OC
[27]
  GI50: 1230 nM
  TGI: 2950 nM
